Patent US20120122727A1, “IN VITRO METHOD FOR PREDICTING WHETHER A COMPOUND IS GENOTOXIC IN VIVO” (priority 2009, published 2012)

System: primary mouse hepatocytes
Experiment: Gene expression in primary mouse hepatocytes, GTX vs non-GTX (four-gene classifier, 24 h)
Method: Hepatocyte cells were incubated and exposed to a compound for 24 h before being harvested for RNA isolation.
The results of the gene expression analysis may then be fed into a statistical software package such as R, Splus, or Microsoft Excel. […] If none or only one of these criteria were met, no point was scored.
For each of the four genes mentioned in the table (1700007K13RIK, GAS2L3, SPC25, DDIT4L), a statistical comparison was made between the normalized expression data for these genes. […] If none or only one of these criteria were met, no point was scored.
For each compound, the sum of the scores for four genes is taken. If this score is 0, a compound can be believed not to be genotoxic. If this score is 1, 2, 3 or 4, a compound is genotoxic.
If none or only one of these criteria were met, no point was scored.

[1] = 24 h exposure, average of four replicates

In the case of `O=C(O)Cc1ccccc1Nc1c(Cl)cccc1Cl` [DF, Diclofenac], the “Ratios of gene expression treated/untreated 1700007K13RIK” value is reported as 0.09622, the “Ratios of gene expression treated/untreated DDIT4L” value is reported as 0.1268 and the “Ratios of gene expression treated/untreated GAS2L3” value is reported as −0.2839. The “Ratios of gene expression treated/untreated SPC25” value was 0.4079, the “score 1700007K13RIK” value [1] was 0 and the “score DDIT4L” value [1] was 0. The “score GAS2L3” value [1] was 0, the “score SPC25” value [1] was 0 and the Total score (sum of scores for four genes, 0 = not genotoxic, 1, 2, 3 or 4 = genotoxic) was 0.
